# Results from US20080085884A1, “Melanin Concentrating Hormone Receptor-1 Antagonist Pyridinones” (Pfizer Inc, priority 2006, published 2008).
# Biological target: T1, human MCHR1 (Homo sapiens, UniProt Q99705)
# T1 construct: host or cells: CHO
# Test: Cyclic AMP assay (MCHR-1 functional antagonism)
# Type: cell-based
# Conditions: CHO cells stably expressing human MCHR1; cAMP accumulation with 25 uM forskolin and 0.2 nM MCH, 90 min; Ki from IC50 by Cheng-Prusoff; read-out: MCHR-1 functional Ki
# Experimental: CHO cell lines stably expressing the human MCHR1 (Euroscreen, Brussels, Belgium) were maintained in DMEM containing Glutamax (Invitrogen, Carlsbad, Calif.), 10% FBS, 400 ug/ml Geneticin.
# Cyclic AMP assays. CHO cells stably expressing the human MCHR1 receptors were collected and resuspended at a density of 4.0×10^6 cells/ml in F12 (Hams) media and seeded (20,000 cells per well) into 384-well, solid white Greiner assay plates. […] Cells were incubated at 37° C./5% CO2 for 90 minutes and cAMP accumulation subsequently determined by DiscoveRx Hithunter c-AMP II Assay kit (GE Healthcare, Buckinghamshire, UK) in accordance with manufactures instructions. Luminescence was measured on a LEADseaker imaging system (GE Healthcare, Buckinghamshire, UK). IC50 values were calculated from dose-response data fit using an in-house computer graphics and statistics program.
# T1 sequence (Q99705 whole entry): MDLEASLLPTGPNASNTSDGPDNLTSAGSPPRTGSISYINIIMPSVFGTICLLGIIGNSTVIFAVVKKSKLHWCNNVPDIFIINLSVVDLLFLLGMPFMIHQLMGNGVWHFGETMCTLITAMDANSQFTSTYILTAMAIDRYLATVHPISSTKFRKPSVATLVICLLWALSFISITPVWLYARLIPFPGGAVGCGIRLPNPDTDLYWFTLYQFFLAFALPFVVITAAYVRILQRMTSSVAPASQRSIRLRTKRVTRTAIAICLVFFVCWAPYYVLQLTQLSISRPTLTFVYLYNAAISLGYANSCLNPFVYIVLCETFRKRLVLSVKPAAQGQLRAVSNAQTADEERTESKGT
row,Compound,Ki [nM]
1,"O=c1cc(OCc2ccccc2)ccn1-c1ccc(N2CCNCC2)nc1 [Example 2, 4-(Benzyloxy)-6′-piperazin-1-yl-2H-1,3′-bipyridin-2-one]",89.9
2,COC(=O)N1CCN(c2ccc(-n3ccc(OCc4ccc(F)cc4)cc3=O)cn2)CC1 [Example 81],1170
3,"CN(C)C(=O)C1CCN(c2ccc(-n3ccc(OCc4ccccc4)cc3=O)cn2)C1 (racemic) [Example 25, 1-[4-(Benzyloxy)-2-oxo-2H-1,3′-bipyridin-6′-yl]-N,N-dimethylpyrrolidine-3-carboxamide]",80.9
4,O=c1cc(OCc2ccccc2)ccn1-c1ccc(N2CCC3(CCNC3)C2)nc1 (stereo not shown) [Example 219],8.45
5,COC(=O)N[C@H]1CCN(c2ccc(-n3ccc(OCc4ccc(F)cc4)cc3=O)cn2)C1 [Example 186],29.8
6,N[C@@H]1CCN(c2ccc(-n3ccc(OCc4ccc(Cl)cc4)cc3=O)cn2)C1 [Example 105],6.34
7,"CN1CCN(c2ccc(-n3ccc(OCc4ccccc4)cc3=O)cn2)CC1 [Example 6, 4-(Benzyloxy)-6′-(4-methylpiperazin-1-yl)-2H-1,3′-bipyridin-2-one]",163
8,COC(=O)N(C)[C@H]1CCN(c2ccc(-n3ccc(OCc4ccc(F)cc4)cc3=O)cn2)C1 [Example 180],22.2
9,CC(=O)N[C@H]1CCN(c2ccc(-n3ccc(OCc4ccc(Cl)cc4)cc3=O)cn2)C1 [Example 174],26.2
10,O=c1cc(OCc2ccc(F)cc2)ccn1-c1ccc(N2CC(N3CCCC3)C2)nc1 [Example 95],147
11,"CN1C[C@@H]2CN(c3ccc(-n4ccc(OCc5ccccc5)cc4=O)cn3)C[C@@H]2C1 [Example 3, 4-(Benzyloxy)-6′-[(3aR,6aS)-5-methylhexahydropyrrolo[3,4-c]pyrrol-2(1H)-yl]-2H-1,3′-bipyridin-2-one]",10.1
12,CN(C(=O)OC(C)(C)C)[C@H]1CCN(c2ccc(-n3ccc(OCc4ccccc4)cc3=O)nn2)C1 [Example 156],230
13,CCC1CN(c2ccc(-n3ccc(OCc4ccccc4)cc3=O)cn2)CCN1 (stereo not shown) [Example 72],74.6
14,"CN(C)C(=O)C1CCN(c2ccc(-n3ccc(OCc4ccccc4)cc3=O)cn2)C1 (single isomer, unassigned) [Example 25b, 1-[4-(Benzyloxy)-2-oxo-2H-1,3′-bipyridin-6′-yl]-N,N-dimethylpyrrolidine-3-carboxamide]",69.6
15,O=c1cc(OCc2ccccc2)ccn1-c1ccc(N2CC3CCC(C2)N3)nc1 [Example 69],124
16,CCN(C(=O)OC)[C@H]1CCN(c2ccc(-n3ccc(OCc4ccccc4)cc3=O)cn2)C1 [Example 177],19.3
17,CCO[C@H]1CCN(c2ccc(-n3ccc(OCc4ccccc4)cc3=O)cn2)C1 [Example 40],34.1
18,COCC1CCCN(c2ccc(-n3ccc(OCc4ccccc4)cc3=O)cn2)CC1 (stereo not shown) [Example 233],17.6
19,O=c1cc(OCc2cccc(Cl)c2Cl)ccn1-c1ccc(N2CC[C@@H](O)C2)nc1 [Example 205],498
20,COC1CCN(c2ccc(-n3ccc(OCc4ccccc4)cc3=O)cn2)CC1 [Example 47],57.8
21,COC(=O)N[C@H]1CCN(c2ccc(-n3ccc(OCc4ccc(Cl)cc4)cc3=O)cn2)C1 [Example 194],46.6
22,CO[C@H]1CCN(c2ccc(-n3ccc(OCc4ccccc4)cc3=O)cn2)C1 [Example 36],75.5
23,O=c1cc(OCc2ccc(F)cc2)ccn1-c1ccc(N2CCC(O)CC2)nc1 [Example 115],100
24,COC(=O)N(C)[C@@H]1CCN(c2ccc(-n3ccc(OCc4ccccc4)cc3=O)cn2)C1 [Example 187],24.1
25,N[C@H]1CCN(c2ccc(-n3ccc(OCc4ccc(F)cc4)cc3=O)cn2)C1 [Example 118],11.5
26,COC(=O)N1CCN(c2ccc(-n3ccc(OCc4ccccc4)cc3=O)cn2)CC1 [Example 48],705
27,O=c1cc(COc2ccc(F)cc2)ccn1-c1ccc(N2CC[C@@H](O)C2)nc1 [Example 93],1090
28,COC(=O)N1C[C@@H]2CN(c3ccc(-n4ccc(OCc5ccc(F)cc5)cc4=O)cn3)C[C@@H]2C1 [Example 195],31.3
